According to patent US20260248087A1, “GENERATING DOUBLED HAPLOID PLANTS” (Syngenta Crop Protection AG, priority 2023, published 2026):

Experiments:
[1] = test system: doubled haploid embryos; test: Potting rate and root growth, metcamifen post-treatment during germination; type: in vivo, maize; conditions: for Potting Rate Mean: post-treatment in germination media (2.5 g/L Gelzan)
Procedure: As used herein, the term “potted rate” or “potting rate” refers to the percent of germinated embryos successfully transferred to soil from total treated haploid embryos. The “potted rate” is used as an indication of plant health in monitoring the success of recovery and growth after treatment of haploids. As used herein, the term “transplant rate” refers to the survival of healthy plants after embryos were germinated and transferred to soil.
(§1) Doubled haploid embryos were treated with metcamifen during germination. Metcamifen was tested in the germination media at 0, 5, and 10 mg/L after colchicine treatment completion for 24 or 48 hours. The germination media comprised Gelzan at a concentration of 3.5 g/L. Four genotypes were tested representing two heterotic groups. […] The percent potting rate was not increased as result of these post-treatments. […] This led to a looping of the roots. A reduction in Gelzan concentration from 3.5 g/L to 2.5 g/L was tested (comparison data not presented here). The experiments were then carried out with 2.5 g/L Gelzan for metcamifen post-treatments while the control (0 metcamifen) contained 3.5 g/L Gelzan. Metcamifen was tested as 0, 5, 10 and 20 mg/L after colchicine treatment completion for 24 and 48 hours. The reduction in Gelzan of the metcamifen post-treatments led to a higher percent potting rate (see Table 5).

[2] = test system: GST27; test: GST27 induction, metcamifen post-treatment during germination; type: cell-based, maize; conditions: for GST27 Mean: post-treatment in germination media (2.5 g/L Gelzan)
Procedure: (§2) For the examples below, GST27 was used as a quick indicator for treatment effectiveness.
as §1

[3] = test system: GST27; test: GST27 induction, metcamifen pre-treatment of maize ears; type: cell-based
Procedure: as §2
The effect of temperature was tested independently by comparing 6° C. and 28° C. for both 3 and 5 days with 150 PAR light.
Maize ears were pre-treated with metcamifen prior to embryo isolation and before moving the embryos to colchicine-containing doubling media. In all experiments, doubling media is semi-solid, thickened with Gelzan, unless liquid media is specified. Two methods of delivering the safener at concentrations of 100 and 1000 mg/L were tested. The first method wrapped the ear in a paper towel that was wet with formulated metcamifen. The second method used a sprayer to deliver the formulated metcamifen onto the ear surface at 6° C. with 150 PAR light. GST27 was measured after metcamifen pre-treatment and again at the end of colchicine treatment. A low level of GST27 was induced (<10 ng/mg Total Soluble Protein (TSP)) at the end of the ear pre-treatment. Following ear pre-treatment, embryos were isolated and treated with colchicine for 48 hours.
The addition of 0.5% Tween20 in the formulation with metcamifen at both 100 and 1000 mg/L was tested in combination with spraying corn ears as a pre-treatment prior to embryo isolation.

[4] = test system: GST27; test: GST27 induction, metcamifen co-treatment of isolated embryos during colchicine doubling; type: cell-based, maize; conditions: for GST27 Induction Mean: co-treatment with colchicine
Procedure: as §2
Isolated embryos were treated with metcamifen during colchicine doubling (also referred to as co-treatment). Metcamifen was added in the colchicine co-treatment media (a.k.a. doubling media) as a formulation at concentrations of 0, 200, 400, 800, 1200 mg/L. Metcamifen concentrations tested for a 24-hour duration ranged from 0-1000 mg/L. Metcamifen concentrations tested for a 48-hour condition ranged from 0-1200 mg/L. Three to four genotypes representing two heterotic groups were tested.
Initial testing on three genotypes included co-treatment of metcamifen and colchicine in Gelzan media at 28° C. with 150 PAR light at concentrations of 0, 200, and 1000 mg/L to identify a range of working concentrations. The 200 and 1000 mg/L concentrations induced similar GST27 expression levels for both the 24- and 48-hour durations. The resulting induction was higher (400 ng/mg TSP GST27) than recorded with pre-treatments of ears or isolated embryos. […] Metcamifen co-treatment of isolated embryos optimization continued by testing levels of 0, 400, 600, and 800 mg/L for 24 and 48 hours with 4 genotypes across 2 heterotic groups. GST induction (ng/mg TSP) was measured after metcamifen co-treatment. […] The percent potted rate after metcamifen co-treatment was similar for both time durations when sorted by genotype or heterotic group.

[5] = test system: corn embryos; test: Uptake of metcamifen and metabolism of colchicine in corn embryos (LCMS); type: in vitro ADME
Procedure: An experiment was completed to evaluate the uptake of metcamifen into corn embryos, whether colchicine is metabolized in the embryos, and if metcamifen increased the rate of colchicine metabolism. Corn embryos were co-treated with 500 ppm colchicine in the presence of 200 ppm, 1000 ppm or no metcamifen (control) for 24 or 48 hours and frozen. One biological replicate was represented by five embryos, and three biological replicates were used per co-treatment.
Prior to extraction, embryos were washed for 20 seconds in 80:20 (v/v) acetonitrile:H2O to remove any colchicine and metcamifen on the surface. Each replicate was extracted in 0.5 ml methanol using a fast prep maceration method. Then, samples were diluted 1 in 10 prior to analysis by Liquid Chromatography Mass Spectrometry (LCMS). Samples were analyzed alongside matrix matched standards of colchicine and metcamifen. Metabolite investigations were performed to identify any metabolites.

CNC(=O)Nc1ccc(S(=O)(=O)NC(=O)c2ccccc2OC)cc1 [Metcamifen, metcamifen]
percent potting rate ([1]; post-treatment 5 and 10 mg/L, 3.5 g/L Gelzan, 24 or 48 hours): not increased | Potting Rate Mean ([1]; 5 mg/L, Duration 24 hours): 69% | Potting Rate Mean ([1]; 5 mg/L, Duration 48 hours): 18% | Potting Rate Mean ([1]; 10 mg/L, Duration 24 hours): 62% | Potting Rate Mean ([1]; 10 mg/L, Duration 48 hours): 24% | Potting Rate Mean ([1]; 20 mg/L, Duration 24 hours): 51% | Potting Rate Mean ([1]; 20 mg/L, Duration 48 hours): 23% | GST27 expression versus control ([2]; post-treatment 5 and 10 mg/L, 3.5 g/L Gelzan, 24 and 48 hours): higher than the control group | GST27 Mean ([2]; 5 mg/L, Duration 24 hours): 327 ng/mg TSP | GST27 Mean ([2]; 5 mg/L, Duration 48 hours): 317 ng/mg TSP | GST27 Mean ([2]; 10 mg/L, Duration 24 hours): 345 ng/mg TSP | GST27 Mean ([2]; 10 mg/L, Duration 48 hours): 290 ng/mg TSP | GST27 Mean ([2]; 20 mg/L, Duration 24 hours): 404 ng/mg TSP | GST27 Mean ([2]; 20 mg/L, Duration 48 hours): 400 ng/mg TSP | GST27 induced at the end of the ear pre-treatment ([3]; ear pre-treatment, 100 and 1000 mg/L, 6° C.): < 10 ng/mg Total Soluble Protein (TSP) | GST27 induced by ear pre-treatment ([3]; ear pre-treatment, as restated in Example 3): less than 10 ng/ml of TSP | GST27 before doubling, Mean ([3]; ear pre-treatment, metcamifen 100 mg/L, 3 days, 6° C.): 4 ng/mg of TSP | GST27 after doubling, Mean ([3]; ear pre-treatment, metcamifen 100 mg/L, 3 days, 6° C., then colchicine 48 hours): 156 ng/mg of TSP | GST27 before doubling, Mean ([3]; ear pre-treatment, metcamifen 100 mg/L, 5 days, 6° C.): 2 ng/mg of TSP | GST27 after doubling, Mean ([3]; ear pre-treatment, metcamifen 100 mg/L, 5 days, 6° C., then colchicine 48 hours): 245 ng/mg of TSP | GST27 before doubling, Mean ([3]; ear pre-treatment, metcamifen 1000 mg/L, 3 days, 6° C.): 3 ng/mg of TSP | GST27 after doubling, Mean ([3]; ear pre-treatment, metcamifen 1000 mg/L, 3 days, 6° C., then colchicine 48 hours): 178 ng/mg of TSP | GST27 before doubling, Mean ([3]; ear pre-treatment, metcamifen 1000 mg/L, 5 days, 6° C.): 4 ng/mg of TSP | GST27 after doubling, Mean ([3]; ear pre-treatment, metcamifen 1000 mg/L, 5 days, 6° C., then colchicine 48 hours): 303 ng/mg of TSP | GST27 induction at the end of the colchicine treatment ([3]; ear pre-treatment, then colchicine 48 hours): increased but insignificant | GST27 expression level with addition of 0.5% Tween20 ([3]; spraying corn ears, 100 and 1000 mg/L, over 4 days): did not improve | GST27 induction among 0, 400, 600, 800 mg/L ([4]; 800 mg/L, 48-hour co-treatment, 4 genotypes): highest induction | GST27 Induction Mean ([4]; 200 mg/L, 24 hours): 383.25 ng/mg TSP | GST27 Induction Mean ([4]; 400 mg/L, 24 hours): 396.13 ng/mg TSP | GST27 Induction Mean ([4]; 400 mg/L, 48 hours): 609.50 ng/mg TSP | GST27 Induction Mean ([4]; 800 mg/L, 24 hours): 489.38 ng/mg TSP | GST27 Induction Mean ([4]; 800 mg/L, 48 hours): 666.50 ng/mg TSP | GST27 Induction Mean ([4]; 1200 mg/L, 48 hours): 796.63 ng/mg TSP | GST27 induction ([4]; initial testing, 200 and 1000 mg/L, 24- and 48-hour, Gelzan media, 28° C., three genotypes): 400 ng/mg TSP | effect of metcamifen on amount of colchicine recovered ([5]; 500 ppm colchicine with 200 or 1000 ppm metcamifen): did not reduce the amount of colchicine recovered | metcamifen in embryo extracts (uptake) ([5]; co-treated with 500 ppm colchicine and 200 or 1000 ppm metcamifen, 24 and 48 hours): could be detected | recovery amount of colchicine metabolite (−14, O-demethylation) ([5]; duration and metcamifen co-treatment): increased
